Entries after “also recorded” stand apart in the source; their conditions may differ. Marks after values point to notes of the source that are not given here.
Assay: Salt screen: XRPD of isolated solids after drying at 40° C. and at 40° C./75% RH
Type: physicochemical
Conditions: for XRPD after drying at 40° C./75% RH: after 40° C. drying, dried at 40° C./75% RH for about 24 h, label = form after 40° C. drying; for XRPD after drying at 40° C.: isolated solids dried at 40° C. for about 24 h, label = wet form
Description: To approximately 20 mg of amorphous lyophilized osanetant was added 0.3 mL of solvent for liquid counterion experiments. 0.2 mL of solvent was employed for solid counterion experiments. […] To the stirring mixture was then added 1.05 mol eq. of the appropriate counterion. Where solid counterions were used, the vial which contained the counterion was washed in to the osanetant containing vial with 0.1 mL of the appropriate solvent. Additional solvent was added where necessary. The experiments were thermally cycled as follows: heated from 25 to 40° C. at a rate of 0.1° C./min; 1 h at 40° C.; Cool to 5° C. at a rate of 0.1° C.; 1 h at 5° C.; 40° C. at a rate of 0.1° C./min; […] The crystallization experiments were thermally cycled overnight, then slurries were isolated by centrifugation. XRPD analysis was carried out on any isolated solids or gums. The XRPD plate, and the isolated solids, were then dried at 40° C. for about 24 h, and XRPD analysis was repeated. The XRPD plate was then dried at 40° C./75% RH for about 24 h and XRPD analysis was again repeated. All other samples were allowed to evaporated at ambient temperature and pressure.

Row | Compound | XRPD after drying at 40° C./75% RH | XRPD after drying at 40° C. | XRPD after drying at 40° C./75% RH (acetic acid)
1 | CC(=O)N(C)C1(c2ccccc2)CCN(CCC[C@]2(c3ccc(Cl)c(Cl)c3)CCCN(C(=O)c3ccccc3)C2)CC1.O=C(O)C(O)C(O)C(=O)O [osanetant L-tartaric acid Form 1] | crystallinity was lost | no change | 
2 | CC(=O)N(C)C1(c2ccccc2)CCN(CCC[C@]2(c3ccc(Cl)c(Cl)c3)CCCN(C(=O)c3ccccc3)C2)CC1.CC(=O)O [osanetant acetic acid Form 1, (R)-N-(1-(3-(1-benzoyl-3-(3,4-dichlorophenyl)piperidin-3-yl)propyl)-4-phenylpiperidin-4-yl)-N-methylacetamide acetic acid] |  | changed form on drying at 40 °C to Pattern 2 | 
3 | CC(=O)N(C)C1(c2ccccc2)CCN(CCC[C@]2(c3ccc(Cl)c(Cl)c3)CCCN(C(=O)c3ccccc3)C2)CC1.CS(=O)(=O)O [osanetant methanesulfonic acid Form 1, (R)-N-(1-(3-(1-benzoyl-3-(3,4-dichlorophenyl)piperidin-3-yl)propyl)-4-phenylpiperidin-4-yl)-N-methylacetamide methanesulfonic acid] | Amorphous | Form 1 | 
4 | CC(=O)N(C)C1(c2ccccc2)CCN(CCC[C@]2(c3ccc(Cl)c(Cl)c3)CCCN(C(=O)c3ccccc3)C2)CC1.CCS(=O)(=O)O [osanetant ethanesulfonic acid Form 2, (R)-N-(1-(3-(1-benzoyl-3-(3,4-dichlorophenyl)piperidin-3-yl)propyl)-4-phenylpiperidin-4-yl)-N-methylacetamide ethanesulfonic acid] | Amorphous |  | 
5 | CC(=O)N(C)C1(c2ccccc2)CCN(CCC[C@]2(c3ccc(Cl)c(Cl)c3)CCCN(C(=O)c3ccccc3)C2)CC1.CC(=O)O [osanetant acetic acid Form 2, (R)-N-(1-(3-(1-benzoyl-3-(3,4-dichlorophenyl)piperidin-3-yl)propyl)-4-phenylpiperidin-4-yl)-N-methylacetamide acetic acid] |  |  | retained; also recorded: stable
6 | CC(=O)N(C)C1(c2ccccc2)CCN(CCC[C@]2(c3ccc(Cl)c(Cl)c3)CCCN(C(=O)c3ccccc3)C2)CC1.O=P(O)(O)O [osanetant phosphoric acid Form 4, (R)-N-(1-(3-(1-benzoyl-3-(3,4-dichlorophenyl)piperidin-3-yl)propyl)-4-phenylpiperidin-4-yl)-N-methylacetamide phosphoric acid] | stable |  | 
7 | CC(=O)N(C)C1(c2ccccc2)CCN(CCC[C@]2(c3ccc(Cl)c(Cl)c3)CCCN(C(=O)c3ccccc3)C2)CC1.O=S(=O)(O)O [osanetant sulfuric acid Form 2, (R)-N-(1-(3-(1-benzoyl-3-(3,4-dichlorophenyl)piperidin-3-yl)propyl)-4-phenylpiperidin-4-yl)-N-methylacetamide sulfuric acid] | Form 3* |  | 
8 | CC(=O)N(C)C1(c2ccccc2)CCN(CCC[C@]2(c3ccc(Cl)c(Cl)c3)CCCN(C(=O)c3ccccc3)C2)CC1.O=C(O)/C=C/C(=O)O [osanetant fumaric acid Form 1] | crystallinity was lost | no change | 
9 | (R)-N-(1-(3-(1-benzoyl-3-(3,4-dichlorophenyl)piperidin-3-yl)propyl)-4-phenylpiperidin-4-yl)-N-methylacetamide naphthalene-2-sulfonic acid [osanetant naphthalene-2-sulfonic acid Form 1] | retained; also recorded: stable; also recorded: Form 1 | retained; also recorded: Form 1 | 
10 | CC(=O)N(C)C1(c2ccccc2)CCN(CCC[C@]2(c3ccc(Cl)c(Cl)c3)CCCN(C(=O)c3ccccc3)C2)CC1.O=S(=O)(O)c1ccccc1 [osanetant benzenesulfonic acid Form 4, (R)-N-(1-(3-(1-benzoyl-3-(3,4-dichlorophenyl)piperidin-3-yl)propyl)-4-phenylpiperidin-4-yl)-N-methylacetamide benzenesulfonic acid] | converted to Pattern 1; also recorded: Form 1** | Form 4 | 
11 | CC(=O)N(C)C1(c2ccccc2)CCN(CCC[C@]2(c3ccc(Cl)c(Cl)c3)CCCN(C(=O)c3ccccc3)C2)CC1.CCS(=O)(=O)O [osanetant ethanesulfonic acid Form 1, (R)-N-(1-(3-(1-benzoyl-3-(3,4-dichlorophenyl)piperidin-3-yl)propyl)-4-phenylpiperidin-4-yl)-N-methylacetamide ethanesulfonic acid] |  | Form 2 | 
12 | CC(=O)N(C)C1(c2ccccc2)CCN(CCC[C@]2(c3ccc(Cl)c(Cl)c3)CCCN(C(=O)c3ccccc3)C2)CC1.O=P(O)(O)O [osanetant phosphoric acid Form 1, (R)-N-(1-(3-(1-benzoyl-3-(3,4-dichlorophenyl)piperidin-3-yl)propyl)-4-phenylpiperidin-4-yl)-N-methylacetamide phosphoric acid] | converted to Pattern 4; also recorded: Form 4 | Form 1 | 
13 | CC(=O)N(C)C1(c2ccccc2)CCN(CCC[C@]2(c3ccc(Cl)c(Cl)c3)CCCN(C(=O)c3ccccc3)C2)CC1.O=S(=O)(O)O [osanetant sulfuric acid Form 1, (R)-N-(1-(3-(1-benzoyl-3-(3,4-dichlorophenyl)piperidin-3-yl)propyl)-4-phenylpiperidin-4-yl)-N-methylacetamide sulfuric acid] |  | Form 2 | 
14 | (R)-N-(1-(3-(1-benzoyl-3-(3,4-dichlorophenyl)piperidin-3-yl)propyl)-4-phenylpiperidin-4-yl)-N-methylacetamide naphthalene-2-sulfonic acid [osanetant naphthalene-2-sulfonic acid Form 4] | retained; also recorded: stable; also recorded: Form 4 | retained; also recorded: Form 4 | 
15 | CC(=O)N(C)C1(c2ccccc2)CCN(CCC[C@]2(c3ccc(Cl)c(Cl)c3)CCCN(C(=O)c3ccccc3)C2)CC1.Cc1ccc(S(=O)(=O)O)cc1 [osanetant p-toluenesulfonic acid Form 2, (R)-N-(1-(3-(1-benzoyl-3-(3,4-dichlorophenyl)piperidin-3-yl)propyl)-4-phenylpiperidin-4-yl)-N-methylacetamide p-toluenesulfonic acid] | converted to Pattern 1; also recorded: Form 1 | retained; also recorded: Form 2 | 
16 | CC(=O)N(C)C1(c2ccccc2)CCN(CCC[C@]2(c3ccc(Cl)c(Cl)c3)CCCN(C(=O)c3ccccc3)C2)CC1.CS(=O)(=O)O [osanetant methanesulfonic acid Form 2, (R)-N-(1-(3-(1-benzoyl-3-(3,4-dichlorophenyl)piperidin-3-yl)propyl)-4-phenylpiperidin-4-yl)-N-methylacetamide methanesulfonic acid] | Amorphous | Form 2 | 
17 | CC(=O)N(C)C1(c2ccccc2)CCN(CCC[C@]2(c3ccc(Cl)c(Cl)c3)CCCN(C(=O)c3ccccc3)C2)CC1.O=P(O)(O)O [osanetant phosphoric acid Form 3, (R)-N-(1-(3-(1-benzoyl-3-(3,4-dichlorophenyl)piperidin-3-yl)propyl)-4-phenylpiperidin-4-yl)-N-methylacetamide phosphoric acid] | retained; also recorded: stable; also recorded: Form 3 | Form 3 | 
18 | CC(=O)N(C)C1(c2ccccc2)CCN(CCC[C@]2(c3ccc(Cl)c(Cl)c3)CCCN(C(=O)c3ccccc3)C2)CC1.O=C(O)c1ccccc1 [osanetant benzoic acid Form 1, (R)-N-(1-(3-(1-benzoyl-3-(3,4-dichlorophenyl)piperidin-3-yl)propyl)-4-phenylpiperidin-4-yl)-N-methylacetamide benzoic acid] | no change in form; also recorded: stable | no change in form | 
19 | CC(=O)N(C)C1(c2ccccc2)CCN(CCC[C@]2(c3ccc(Cl)c(Cl)c3)CCCN(C(=O)c3ccccc3)C2)CC1.Cc1ccc(S(=O)(=O)O)cc1 [osanetant p-toluenesulfonic acid Form 4, (R)-N-(1-(3-(1-benzoyl-3-(3,4-dichlorophenyl)piperidin-3-yl)propyl)-4-phenylpiperidin-4-yl)-N-methylacetamide p-toluenesulfonic acid] | lost crystallinity; also recorded: Amorphous |  | 
20 | CC(=O)N(C)C1(c2ccccc2)CCN(CCC[C@]2(c3ccc(Cl)c(Cl)c3)CCCN(C(=O)c3ccccc3)C2)CC1.Cc1ccc(S(=O)(=O)O)cc1 [osanetant p-toluenesulfonic acid Form 3, (R)-N-(1-(3-(1-benzoyl-3-(3,4-dichlorophenyl)piperidin-3-yl)propyl)-4-phenylpiperidin-4-yl)-N-methylacetamide p-toluenesulfonic acid] |  | converted to Pattern 4; also recorded: Form 4 | 
21 | (R)-N-(1-(3-(1-benzoyl-3-(3,4-dichlorophenyl)piperidin-3-yl)propyl)-4-phenylpiperidin-4-yl)-N-methylacetamide naphthalene-2-sulfonic acid [osanetant naphthalene-2-sulfonic acid Form 2] | retained; also recorded: stable; also recorded: Form 2* | retained; also recorded: Form 2* | 
